Several values for one entry are separate records, joined by “and”; a condition that tells them apart may be missing. Identical values can stand only once.
Columns and labels:
VEGFR-2 = VEGFR-2 (Homo sapiens, UniProt P35968); experiment: In vitro VEGFR-2 tyrosine kinase inhibitory assay (Z'-LYTE, SelectScreen); format: biochemical; details: 10 µM single dose
Procedure, shortened: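 Z'-LYTE fluorescence coupled-enzyme format, read-out based on differential protease cleavage of phosphorylated vs non-phosphorylated peptide. Compounds screened at 10 µM single dose for % inhibition, then selected ones tested at 0.1 nM–10 µM for IC50 by curve fitting.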

HOP-62 = experiment: NCI one-dose screen; format: cell-based, human; details: NSCLC HOP-62, 10 µM single dose
Procedure, shortened: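 Single 10 μM dose, NCI-60 panel; read-out = % growth vs untreated controls → % inhibition.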

HT29 = experiment: NCI one-dose screen; format: cell-based, human; details: Colon HT29, 10 µM single dose
Procedure, shortened: (§1)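 One concentration (10 μM) applied to each line of the full NCI-60 panel; percent growth compared against untreated cells.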

NCI-H226 = experiment: NCI one-dose screen; format: cell-based, human
Procedure, shortened: as §1

NCI-H322M = experiment: NCI one-dose screen; format: cell-based, human; details: NSCLC NCI-H322M, 10 µM single dose
Procedure, shortened: as §1

PC-3 = experiment: NCI one-dose screen; format: cell-based, human; details: Prostate PC-3, 10 µM single dose
Procedure, shortened: (§2)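 Following the standard NCI-60 protocol, compounds were applied once at 10 μM to all 60 cancer lines. Read-out is percent growth versus untreated controls, expressed as inhibition %.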

SK-OV-3 = experiment: NCI one-dose screen; format: cell-based, human; details: Ovarian SK-OV-3, 10 µM single dose
Procedure, shortened: as §1

SW-620 = experiment: NCI one-dose screen; format: cell-based, human; details: Colon SW-620, 10 µM single dose
Procedure, shortened: as §2

TK-10 = experiment: NCI one-dose screen; format: cell-based, human; details: Renal TK-10, 10 µM single dose
Procedure, shortened: as §1

UACC-257 = experiment: NCI one-dose screen; format: cell-based, human; details: Melanoma UACC-257, 10 µM single dose
Procedure, shortened: as §2

UO-31 = experiment: NCI one-dose screen; format: cell-based, human
Procedure, shortened: as §1

Sequence of VEGFR-2 (P35968 20-1356): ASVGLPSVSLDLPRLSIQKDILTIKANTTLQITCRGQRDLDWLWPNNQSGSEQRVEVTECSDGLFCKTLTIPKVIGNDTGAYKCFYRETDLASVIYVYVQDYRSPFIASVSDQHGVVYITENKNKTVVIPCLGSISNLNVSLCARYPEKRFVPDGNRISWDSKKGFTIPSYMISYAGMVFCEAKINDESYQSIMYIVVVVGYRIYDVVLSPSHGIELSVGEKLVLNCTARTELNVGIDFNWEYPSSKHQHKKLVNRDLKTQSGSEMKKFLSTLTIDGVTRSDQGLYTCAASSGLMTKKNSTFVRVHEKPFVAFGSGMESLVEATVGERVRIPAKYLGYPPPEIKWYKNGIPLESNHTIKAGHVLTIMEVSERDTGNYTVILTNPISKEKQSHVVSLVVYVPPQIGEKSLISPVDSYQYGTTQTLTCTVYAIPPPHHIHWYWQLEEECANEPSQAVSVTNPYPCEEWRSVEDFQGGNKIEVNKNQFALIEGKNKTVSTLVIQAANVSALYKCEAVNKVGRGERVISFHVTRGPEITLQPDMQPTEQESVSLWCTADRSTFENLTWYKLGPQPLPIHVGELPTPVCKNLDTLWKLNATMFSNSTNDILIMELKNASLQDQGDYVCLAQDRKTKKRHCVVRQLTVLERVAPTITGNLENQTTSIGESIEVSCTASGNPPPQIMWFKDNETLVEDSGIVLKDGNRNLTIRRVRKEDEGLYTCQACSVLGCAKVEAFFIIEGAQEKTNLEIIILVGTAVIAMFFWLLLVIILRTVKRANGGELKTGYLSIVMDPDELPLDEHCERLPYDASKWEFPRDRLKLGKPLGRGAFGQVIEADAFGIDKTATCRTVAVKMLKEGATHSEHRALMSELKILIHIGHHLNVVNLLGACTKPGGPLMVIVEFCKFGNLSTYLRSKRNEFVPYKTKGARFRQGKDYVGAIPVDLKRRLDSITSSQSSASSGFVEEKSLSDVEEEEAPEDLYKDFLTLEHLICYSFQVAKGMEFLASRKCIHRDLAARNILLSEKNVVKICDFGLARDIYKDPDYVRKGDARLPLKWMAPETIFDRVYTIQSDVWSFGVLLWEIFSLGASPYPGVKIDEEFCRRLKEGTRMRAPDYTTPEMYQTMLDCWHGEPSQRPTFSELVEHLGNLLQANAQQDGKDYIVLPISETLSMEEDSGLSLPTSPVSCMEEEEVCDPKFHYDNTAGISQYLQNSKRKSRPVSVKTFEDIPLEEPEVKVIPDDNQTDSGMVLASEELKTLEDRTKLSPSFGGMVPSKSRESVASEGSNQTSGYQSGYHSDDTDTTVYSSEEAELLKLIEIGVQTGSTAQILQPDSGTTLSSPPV

**Q.** Which inhibition at 10 µM (VEGFR-2) does the source give for `Cc1c(C(=O)NCCCC(=O)NO)sc2ncnc(Nc3ccc(F)c(Cl)c3)c12` [Compound 20d, 4–(3-chloro-4-fluorophenylamino)-N-(4-(hydroxyamino)-4-oxobutyl)-5-methylthieno[2,3-d]pyrimidine-6-carboxamide] here?
**A.** Its inhibition at 10 µM is 20%.

**Q.** What about the “Growth Percent” value (HOP-62) of the same compound?
**A.** Its value is 105.6% and 105.66%.

**Q.** And the “Growth Percent” value (HT29)?
**A.** Its value is 107.1% and 107.13%.

**Q.** And the inhibition at 10 µM (NCI-H226; Homo sapiens, NSCLC NCI-H226, 10 μM)?
**A.** Its inhibition at 10 µM is 11.3%.

**Q.** What about the “Growth Percent” value (NCI-H226; NSCLC NCI-H226, 10 µM single dose) of the same compound?
**A.** The value was 88.7% and 88.71%.

**Q.** And the “Growth Percent” value (NCI-H322M)?
**A.** Its value is 105.2% and 105.25%.

**Q.** And the “Growth Percent” value (PC-3)?
**A.** Its value is 105.3% and 105.36%.

**Q.** What about the “Growth Percent” value (SK-OV-3) of the same compound?
**A.** The value was 122.6% and 122.66%.

**Q.** And the “Growth Percent” value (SW-620)?
**A.** The value was 103.1% and 103.17%.

**Q.** What about the “Growth Percent” value (TK-10) of the same compound?
**A.** The value was 124.1% and 124.14%.

**Q.** And the “Growth Percent” value (UACC-257)?
**A.** The value was 103%.

**Q.** And the inhibition at 10 µM (UO-31; Homo sapiens, renal UO-31, 10 μM)?
**A.** Its inhibition at 10 µM is 23.7%.

**Q.** And the “Growth Percent” value (UO-31; Renal UO-31, 10 µM single dose)?
**A.** The value was 76.3% and 76.32%.

— article PMC8253220, “Molecular design, synthesis and in vitro biological evaluation of thienopyrimidine–hydroxamic acids as chimeric kinase HDAC inhibitors: a challenging approach to combat cancer” (Journal of Enzyme Inhibition and Medicinal Chemistry, 2021)
